From ChEMBL document CHEMBL3045684, “Compatibility of traditional and novel acaricides with bumblebees (Bombus terrestris): a first laboratory assessment of toxicity and sublethal effects” (Pest Manag Sci, 2010) come the findings set out here.

One may read the mortality as the share of the test organisms that died.

Assay [1] deals with Bombus terrestris. Briefly: Contact toxicity against Bombus terrestris (bumblebee) assessed per bee. It is filed as functional.
For assay [2], the system named is Bombus terrestris. The assay can be described thus: Contact toxicity against worker Bombus terrestris (bumblebee) assessed as reduction in reproduction at 200 mg a.i./l applied on the dorsal thorax for 11 weeks measured once a week for 11 weeks relative to control. It is filed as functional, organism-based.
For assay [3], the system named is Apis mellifera. Briefly: Contact toxicity against Apis mellifera (honey bee) assessed per bee. It is filed as functional.
In assay [4] the test system is Bombus terrestris. Briefly: Contact toxicity against worker Bombus terrestris (bumblebee) assessed as mortality at 200 mg a.i./l applied on the dorsal thorax for 11 weeks measured everyday for 3 days followed by once a week for 11 weeks. It is filed as functional.
Assay [5] deals with Bombus terrestris. Briefly: Toxicity against worker Bombus terrestris (bumblebee) assessed as mortality at 200 mg a.i./l, po administered through sugar water for 11 weeks measured everyday for 3 days followed by once a week for 11 weeks. It is filed as functional.
The subject of assay [6] is Bombus terrestris. Briefly: Toxicity against worker Bombus terrestris (bumblebee) assessed as reduction in reproduction at 200 mg a.i./l, po administered through pollen for 11 weeks measured once a week for 11 weeks. It is filed as functional. Details: scale not given: the % may be the effect or the level left.
The subject of assay [7] is Bombus terrestris. Briefly: Toxicity against worker Bombus terrestris (bumblebee) assessed as mortality at 200 mg a.i./l, po administered through pollen for 11 weeks measured everyday for 3 days followed by once a week for 11 weeks. It is filed as functional.
The subject of assay [8] is Bombus terrestris. Briefly: Contact toxicity against worker Bombus terrestris (bumblebee) assessed as mortality at 10 mg a.i./l applied on the dorsal thorax for 11 weeks measured everyday for 3 days followed by once a week for 11 weeks. It is filed as functional.
The test system of assay [9] is Bombus terrestris. The assay can be described thus: Toxicity against worker Bombus terrestris (bumblebee) assessed as mortality at 10 mg a.i./l, po administered through sugar water for 11 weeks measured everyday for 3 days followed by once a week for 11 weeks. It is filed as functional.
Assay [10] relates to Bombus terrestris. The assay can be described thus: Toxicity against worker Bombus terrestris (bumblebee) assessed as mortality at 10 mg a.i./l, po administered through pollen for 11 weeks measured everyday for 3 days followed by once a week for 11 weeks. It is filed as functional, organism-based.
The test system of assay [11] is Bombus terrestris. Briefly: Contact toxicity against worker Bombus terrestris (bumblebee) assessed as reduction in reproduction at 10 mg a.i./l applied on the dorsal thorax for 11 weeks measured once a week for 11 weeks relative to control. It is filed as functional, organism-based.
Assay [12] has as its system Bombus terrestris. Briefly: Toxicity against worker Bombus terrestris (bumblebee) assessed as reduction in reproduction at 96 mg a.i./l, po administered through pollen for 11 weeks measured once a week for 11 weeks. It is filed as functional, organism-based.
Assay [13] relates to Bombus terrestris. The assay can be described thus: Contact toxicity against worker Bombus terrestris (bumblebee) assessed as mortality at 96 mg a.i./l applied on the dorsal thorax for 11 weeks measured everyday for 3 days followed by once a week for 11 weeks. It is filed as functional.
The test system of assay [14] is Bombus terrestris. Briefly: Contact toxicity against worker Bombus terrestris (bumblebee) assessed as reduction in reproduction at 96 mg a.i./l applied on the dorsal thorax for 11 weeks measured once a week for 11 weeks relative to control. It is filed as functional, organism-based.
For assay [15], the system named is Bombus terrestris. Briefly: Toxicity against worker Bombus terrestris (bumblebee) assessed as reduction in reproduction at 96 mg a.i./l, po administered through sugar water for 11 weeks measured once a week for 11 weeks relative to control. It is filed as functional, organism-based.
Assay [16] concerns Bombus terrestris. Briefly: Toxicity against worker Bombus terrestris (bumblebee) assessed as mortality at 96 mg a.i./l, po administered through pollen for 11 weeks measured everyday for 3 days followed by once a week for 11 weeks. It is filed as functional, organism-based.
Assay [17] deals with Bombus terrestris. Briefly: Toxicity against worker Bombus terrestris (bumblebee) assessed as mortality at 96 mg a.i./l, po administered through sugar water for 11 weeks measured everyday for 3 days followed by once a week for 11 weeks. It is filed as functional.
Assay [18] concerns Bombus terrestris. The assay can be described thus: Toxicity against worker Bombus terrestris (bumblebee) assessed as reduction in reproduction at 0.8 mg a.i./l, po administered through sugar water for 11 weeks measured once a week for 11 weeks relative to control. It is filed as functional, organism-based.
For assay [19], the system named is Bombus terrestris. The assay can be described thus: Contact toxicity against worker Bombus terrestris (bumblebee) assessed as mortality at 0.8 mg a.i./l applied on the dorsal thorax for 11 weeks measured everyday for 3 days followed by once a week for 11 weeks. It is filed as functional.
The test system of assay [20] is Bombus terrestris. Briefly: Toxicity against worker Bombus terrestris (bumblebee) assessed as reduction in reproduction at 0.8 mg a.i./l, po administered through pollen for 11 weeks measured once a week for 11 weeks. It is filed as functional, organism-based.
Assay [21] has as its system Bombus terrestris. The assay can be described thus: Toxicity against worker Bombus terrestris (bumblebee) assessed as mortality at 0.8 mg a.i./l, po administered through sugar water for 11 weeks measured everyday for 3 days followed by once a week for 11 weeks. It is filed as functional.
In assay [22] the test system is Bombus terrestris. Briefly: Toxicity against worker Bombus terrestris (bumblebee) assessed as mortality at 0.8 mg a.i./l, po administered through pollen for 11 weeks measured everyday for 3 days followed by once a week for 11 weeks. It is filed as functional, organism-based.
For assay [23], the system named is Bombus terrestris. Briefly: Contact toxicity against worker Bombus terrestris (bumblebee) assessed as reduction in reproduction at 0.8 mg a.i./l applied on the dorsal thorax for 11 weeks measured once a week for 11 weeks relative to control. It is filed as functional, organism-based.
Assay [24] relates to Bombus terrestris. Briefly: Toxicity against worker Bombus terrestris (bumblebee) assessed as mortality at 100 mg a.i./l, po administered through sugar water for 11 weeks measured everyday for 3 days followed by once a week for 11 weeks. It is filed as functional.
Assay [25] has as its system Bombus terrestris. Briefly: Toxicity against worker Bombus terrestris (bumblebee) assessed as reduction in reproduction at 10 mg a.i./l, po administered through sugar water for 11 weeks measured once a week for 11 weeks relative to control. It is filed as functional, organism-based.
The subject of assay [26] is Bombus terrestris. The assay can be described thus: Toxicity against worker Bombus terrestris (bumblebee) assessed as reduction in reproduction at 100 mg a.i./l, po administered through sugar water for 11 weeks measured once a week for 11 weeks relative to control. It is filed as functional, organism-based.
The subject of assay [27] is Bombus terrestris. Briefly: Toxicity against worker Bombus terrestris (bumblebee) assessed as reduction in reproduction at 200 mg a.i./l, po administered through sugar water for 11 weeks measured once a week for 11 weeks relative to control. It is filed as functional, organism-based.
Assay [28] has as its system Bombus terrestris. Briefly: Toxicity against worker Bombus terrestris (bumblebee) assessed as reduction in reproduction at 100 mg a.i./l, po administered through pollen for 11 weeks measured once a week for 11 weeks. It is filed as functional. Details: scale not given: the % may be the effect or the level left.
Assay [29] has as its system Bombus terrestris. Briefly: Toxicity against worker Bombus terrestris (bumblebee) assessed as reduction in reproduction at 10 mg a.i./l, po administered through pollen for 11 weeks measured once a week for 11 weeks. Also noted: scale not given: the % may be the effect or the level left. It is filed as functional.
In assay [30] the test system is Bombus terrestris. Briefly: Contact toxicity against worker Bombus terrestris (bumblebee) assessed as mortality at 100 mg a.i./l applied on the dorsal thorax for 11 weeks measured everyday for 3 days followed by once a week for 11 weeks. It is filed as functional.
The subject of assay [31] is Bombus terrestris. The assay can be described thus: Toxicity against worker Bombus terrestris (bumblebee) assessed as mortality at 100 mg a.i./l, po administered through pollen for 11 weeks measured everyday for 3 days followed by once a week for 11 weeks. It is filed as functional.
For assay [32], the system named is Bombus terrestris. Briefly: Contact toxicity against worker Bombus terrestris (bumblebee) assessed as reduction in reproduction at 100 mg a.i./l applied on the dorsal thorax for 11 weeks measured once a week for 11 weeks relative to control. It is filed as functional, organism-based.

Active and inactive are the calls of the source. The calls are words filed in the database; no cut-off is given here.

Turning to `CC(C)(C)c1ccc(CCOc2ncnc3ccccc23)cc1` [FENAZAQUIN], the LD50 in assay [1] is greater than 100 µg; in assay [3] it was less than 1 µg. Moreover, the outcome in assay [2] was inactive. The mortality at 200 µg/mL in [4] is less than 25%; in assay [5], 25%; in [7], 90%. The Activity in assay [6] amounted to 50%.
In the case of `C/C1=C\C[C@@H]2C[C@@H](C[C@]3(CC[C@H](C)[C@@H](C)O3)O2)OC(=O)[C@@H]2CC[C@@H](O)[C@H]3OC/C(=C\C=C\[C@H](C)C1)[C@]32O` [MILBEMECTIN], the LD50 in assay [1] is greater than 100 µg; in [3], less than 1 µg. The mortality at 10 µg/mL in assay [8] and in assay [9] was less than 25% each time. Also, the result in [10] and in assay [11] was inactive.
As for `CCC(C)(C)C(=O)OC1=C(c2ccc(Cl)cc2Cl)C(=O)OC12CCCCC2` [SPIRODICLOFEN], the result in assay [12] and in assay [15] was Active. Besides, the mortality at 96 µg/mL in assay [13] and in [17] was less than 25% throughout. Moreover, the outcome in assay [14] and in assay [16] was inactive.
`Cc1cc(C)c(C2=C(OC(=O)CC(C)(C)C)C3(CCCC3)OC2=O)c(C)c1` [SPIROMESIFEN]: the result in assay [18] and in [20] was Active. For the same compound, the mortality at 0.8 µg/mL in assay [19] and in assay [21] was less than 25% throughout. In addition, the result in assay [22] and in assay [23] was inactive.
As to `CCc1nn(C)c(C(=O)NCc2ccc(C(C)(C)C)cc2)c1Cl` [TEBUFENPYRAD], the mortality at 10 µg/mL in assay [8] was less than 25%; in [9] it was 50%. The result in assay [10], in assay [2], in assay [11] and in assay [32] was inactive. The figures for the mortality at 200 µg/mL in [4], in assay [5] and in assay [7] were less than 25%, 50% and 90%, respectively. Further, the mortality at 100 µg/mL was 50% in [24], less than 25% in assay [30] and 90% in assay [31]. In addition, the result in [25], in [26] and in assay [27] was Active. The Activity in assay [6], in assay [28] and in assay [29] was 50% each time.
